From patent US9849102B2, “Treatment for reducing inflammation” (ISIFER AB, priority 2010, dated 2017)
“Also recorded” adds a separate entry of the source.

Experiments:
Format in all cases: cell-based, human
[1] = tested on: IL-1β; experiment: ELISA of IL-1β in cell medium of endometriosis cells incubated with lidocaine
Procedure: (§1) During laparotomy, human endometriosis tissue biopsies from endometriosis cysts were obtained from four women during laparotomy. The tissue samples were handled aseptically, transported to the laboratory and frozen in fluid nitrogen to −150° C. The biopsies were later verified histologically as endometriosis tissue. The sampling procedure was approved by the Ethical Committee. The frozen endometriosis tissues were thawed in water at +37° C. and then transferred to test tubes. Two tissue biopsy samples were taken from each endometrioma and prepared as follows: the endometriosis tissue covering the inside of endometriosis cysts was detached from encapsulating fibrous tissue by gentle scraping with a knife. The tissue was then exposed for 0.2% collagenase Type III (Worthington Biochemical Corporation Freehold, N.J., USA) for 2 h. The cell suspension was then centrifuged at 1500 rpm for 10 min. The cells were re-suspended in RPMI 1640 cell culture medium with L-glutamine and phenol red (Invitrogen Ltd), 20% Foetal Bovine serum (Invitrogen Ltd), sodium pyruvate, MEM 100 mM (Invitrogen Ltd), non-essential amino acids (Invitrogen Ltd), heparin 90 μg/ml (Sigma-Aldrich Fine Chemicals St Louis, Mo., USA), penicillin-streptomycin with 10.000 Units/ml penicillin G sodium and 10.000 μg/ml streptomycin sulphate in 0.85% saline (Invitrogen Ltd), Hepes buffer solution 1M (Invitrogen Ltd) and seeded in T-75 cm^2 cell culture flasks (Nunc, Roskilde, Denmark) pre-coated with 0.2% gelatin (Sigma-Aldrich). The culture medium was changed the following day and thereafter once a week. When confluent monolayers were obtained after 3 weeks, the cultures were tryptinized cultures from passages 4 and 6 were frozen in fluid nitrogen to −150° C. and later used for experiments.
(§2) The lidocaine treatments of the cells were performed in duplicates on the endometriosis cells that were used for experiments. […] The production of MCP-1, TNF-α and […] was measured according to the manufacturer's using an enzyme-linked immunosorbent assay (ELISA, Quantikine, R&D Systems, Minneapolis, Minn. 55413, USA).

[2] = tested on: TNF-α; experiment: ELISA of TNF-α production from endometriosis cells incubated with lidocaine
Procedure: as §1, §2

[3] = tested on: MCP-1; experiment: ELISA of MCP-1 production from endometriosis cells incubated with lidocaine
Procedure: as §1, §2

[4] = incubation with lidocaine 1 mg/ml, 24 and 48 h, versus control

CCN(CC)CC(=O)Nc1c(C)cccc1C [Lidocaine]
concentration of IL-1β in the cell medium (in words) ([1]; before and after incubation with lidocaine): at a low level
IL-1β in Lidocaine medium 24 h ([1]; human endometriosis cell culture medium, lidocaine hydrochloride 1 mg/ml, 24 h, control medium 24 h <5.00): <5.00 pg/mL
IL-1β in Lidocaine medium 48 h ([1]; human endometriosis cell culture medium, lidocaine hydrochloride 1 mg/ml, 48 h, control medium 48 h <5.00): <5.00 pg/mL
TNF-α in Lidocaine medium 24 h ([2]; human endometriosis cell culture medium, lidocaine hydrochloride 1 mg/ml, 24 h, control medium 24 h 8.2): 9.4 pg/mL
TNF-α in Lidocaine medium 48 h ([2]; human endometriosis cell culture medium, lidocaine hydrochloride 1 mg/ml, 48 h, control medium 48 h 10.5): 10.0 pg/mL
production of TNF-α from endometriosis cells (in words) [2, 4]: unaffected
MCP-1 in Lidocaine medium 24 h ([3]; human endometriosis cell culture medium, lidocaine hydrochloride 1 mg/ml, 24 h, control medium 24 h 145.0): 62.0 pg/mL
MCP-1 in Lidocaine medium 48 h ([3]; human endometriosis cell culture medium, lidocaine hydrochloride 1 mg/ml, 48 h, control medium 48 h 315.0): 122.0 pg/mL
MCP-1 production from endometriosis cells (in words) [3, 4]: substantial reduction; also recorded: seems to be reduced
